Reference: patent US20130079394A1, “Indirect modeling of new repellent molecules active against insects, acarids, and other arthropods” (CNRS (CENTRE NATIONAL RECHERCHE SCIENTIFIQUE), priority 2011, published 2013)

tested on: mosquitoes; test: not given; conditions: absence of body odor attractants such as 1-octen-3-ol, lactic acid, or carbon dioxide; cited from earlier work

Structure (SMILES)	repellent activity in a behavioral test
CCN(CC)C(=O)c1cccc(C)c1 [DEET, N,N-Diethyl-meta-toluamide]	strong repellent activity

tested on: flies; test: Repellency index of coumarin derivatives evaluated in vivo (index from −1 to 1, function of a number of flies); parameters: key to Repellency Index: index from −1 to 1, 1 = highly repellent; conditions: experimental index ranging from −1 to 1 (1 = highly repellent); measurement error about ±0.1; data set of USSN 61,501,485
Description: Up until now, all existing models for repellency have been based on protection time value, which is different for each. Moreover, the environmental parameters in which the animals are studied are frequently different. As a consequence, data produced using different models cannot be combined/compared. […] The numerical value obtained was not a protection time but rather an index ranging from −1 to 1 (with 1 being highly repellent). This number was calculated for each experiment and is function of a number of flies.
To minimize the deleterious effects of these potentially confounding factors, “repellency classes” were established. Based on the repellency index values, the dataset was divided into 2, 3, 4 or 5 repellency class subsets, in order to reduce the difficulty of modeling the property of slightly repellent molecules. For example, in the four classes' models, the thresholds between the classes are defined as follow: […]

Structure (SMILES)	Repellency Index
CC(C)COc1cc(=O)oc2ccccc12 [EV07070]	0.94
CC(C)COc1ccc2oc(=O)ccc2c1 [EV07072]	0.98
CCCCCCC(C)Oc1cc(=O)oc2ccccc12 (stereo not drawn) [EV07078]	0.91
CCCCC(CC)C(=O)Oc1ccc2ccc(=O)oc2c1 (stereo not drawn) [EV 04016]	0.11
C/C=C(\C)C(=O)Oc1ccc2ccc(=O)oc2c1 [EV 04024]	0.26
CCC(C)C(=O)Oc1ccc2ccc(=O)oc2c1 (stereo not drawn) [EV 04030]	−0.10
C=CCOc1ccc2ccc(=O)oc2c1 [EV 04032]	0.19
CCCCOc1ccc2ccc(=O)oc2c1 [EV 04036]	−0.06
CCC(C)OC(=O)N1CCCCC1CCOc1ccc2ccc(=O)oc2c1 (stereo not drawn) [EV 04042]	0.43
CC(C)Oc1ccc2ccc(=O)oc2c1 [EV 04054]	0.66
CCC(C)Oc1ccc2ccc(=O)oc2c1 (stereo not drawn) [EV 04058]	0.76
CCC(C)CC(=O)Oc1ccc2ccc(=O)oc2c1 (stereo not drawn) [EV 04062]	0.04
CCC(C)Oc1ccc2ccc(=O)oc2c1 (stereo not drawn) [EV 04070]	0.83
CC1CCCCC1Oc1ccc2ccc(=O)oc2c1 (stereo not drawn) [EV 04084]	−0.01
C=C(C)C1CC=C(COc2ccc3ccc(=O)oc3c2)CC1 (stereo not drawn) [EV 04090]	0.40
CCC(C)COc1ccc2ccc(=O)oc2c1 (stereo not drawn) [EV 04094]	0.73
CCC(CC)Oc1ccc2ccc(=O)oc2c1 [EV 04114]	0.86
CC(=O)OC(C)C(=O)Oc1ccc2ccc(=O)oc2c1 (stereo not drawn) [EV 04122]	−0.36
CC(C)COC1CCC2CCC(=O)OC2C1 (stereo not drawn) [EV 04188]	0.65

Structure (SMILES)	Repellency Index
COC(=O)/C=C/c1ccccc1O [EV 05056]	0.40
CCN(CC)C(=O)c1ccc2ccc(=O)oc2c1 [EV 05084]	0.30
O=C(COc1ccc2ccc(=O)oc2c1)N1CCCCC1 [EV 05088]	0.07
CCN(CC)C(=O)COc1ccc2ccc(=O)oc2c1 [EV 05096]	0.80
O=C(c1ccc2ccc(=O)oc2c1)N1CCCCC1 [EV 05118]	−0.10
CCCCN(CCCC)C(=O)COc1ccc2ccc(=O)oc2c1 [EV 05120]	0.71
CC1CCCCN1C(=O)COc1ccc2ccc(=O)oc2c1 (stereo not drawn) [EV 05134]	0.78
CCCCN(CCCC)C(=O)c1ccc2ccc(=O)oc2c1 [EV 05138]	0.72
CC1CCCCN1C(=O)c1ccc2ccc(=O)oc2c1 (stereo not drawn) [EV 05144]	0.60
CCC(CC)OC(=O)c1ccc2ccc(=O)oc2c1 [EV 05162]	0.62
CCC(CC)OC(=O)COc1ccc2ccc(=O)oc2c1 [EV 05174]	0.69
CCC(C)OC(=O)c1ccc2ccc(=O)oc2c1 (stereo not drawn) [EV 05178]	0.71
CCC(CC)Oc1ccc2oc(=O)ccc2c1 [EV 06018]	0.43
CCCCCOc1ccc2ccc(=O)oc2c1 [EV 06026]	0.88
CC(C)C(C)Oc1ccc2ccc(=O)oc2c1 (stereo not drawn) [EV 06028]	0.88
CC(C)CCOc1ccc2ccc(=O)oc2c1 [EV 06036]	0.73
CCCC(C)Oc1ccc2ccc(=O)oc2c1 (stereo not drawn) [EV 06044]	0.92
CCC(C)OC(=O)COc1ccc2ccc(=O)oc2c1 (stereo not drawn) [EV 06046]	0.08
CCC(C)COC(=O)COc1ccc2ccc(=O)oc2c1 (stereo not drawn) [EV 06058]	0.52

Structure (SMILES)	Repellency Index
CCC(CC)Cc1cc(=O)oc2ccccc12 [EV 06062]	0.97
CCC(C)Oc1ccc2oc(=O)ccc2c1 (stereo not drawn) [EV 06068]	0.88
CCC(C)Oc1cc(=O)oc2ccccc12 (stereo not drawn) [EV 06088]	0.82
CCCCCCCCN(CCCCCCCC)C(=O)COc1ccc2ccc(=O)oc2c1 [EV 06092]	0.35
CCCCCCCCN(CCCCCCCC)C(=O)c1ccc2ccc(=O)oc2c1 [EV 06096]	0.91
CCCC(C)Oc1cc(=O)oc2ccccc12 (stereo not drawn) [EV 06098]	0.95
CCCCCCOc1ccc2ccc(=O)oc2c1 [EV 06110]	0.78
CC(C)C(C)Oc1cc(=O)oc2ccccc12 (stereo not drawn) [EV 06128]	0.34
CCCCCOc1cc(=O)oc2ccccc12 [EV 06136]	0.77
CC(C)CCOc1cc(=O)oc2ccccc12 [EV 06140]	0.84
CCCCCCCCOc1ccc2ccc(=O)oc2c1 [EV 06144]	0.83
CCCCCCC(C)Oc1ccc2ccc(=O)oc2c1 (stereo not drawn) [EV 06148]	0.92
CCCC(C)Oc1ccc2oc(=O)ccc2c1 (stereo not drawn) [EV 06154]	0.93
CC(C)(C)COc1ccc2ccc(=O)oc2c1 [EV 06162]	−0.55
CCC(C)NC(=O)c1ccc2ccc(=O)oc2c1 (stereo not drawn) [EV 06166]	0.25
CCC(C)OC(=O)COc1ccc2ccc(=O)oc2c1 (stereo not drawn) [EV 06178]	0.25
CCC(C)Oc1ccc2ccc(=O)oc2c1 (stereo not drawn) [EV 06188]	0.87
CCCCCCCCN(CCCCCCCC)C(=O)COc1cc(=O)oc2ccccc12 [EV 07068]	0.98

same assay, conditions: values used as class thresholds

Structure (SMILES)	repellency index (RI) of reference repellents
CCN(CC)C(=O)c1cccc(C)c1 [DEET, N,N-Diethyl-meta-toluamide]	0.83
CCC(C)OC(=O)N1CCCCC1CCO (stereo not drawn) [Picaridine, reference compound]	0.70

tested on: not given; test: not given; conditions: reported by US EPA (RED); cited from earlier work

Structure (SMILES)	deaths among DEET-associated seizure cases [deaths]
CCN(CC)C(=O)c1cccc(C)c1 [DEET, N,N-Diethyl-meta-toluamide]	4
